Laboratory results published in patent US20220315574A1, “Beta-Arrestin-Modulating Compounds and Methods of Using Same” (Duke University, priority 2019, published 2022).

Tests used:
[1] = biological target: T1, βarr2 recruitment to agonist-activated β2V2R (Homo sapiens, UniProt P32121); assay: DiscoveRx PathHunter β-arrestin recruitment assay in U2OS cells; type: cell-based; details: series of compound concentrations, 30 min pretreatment, isoproterenol dose-response
T1 construct: host or cells: U2OS
Procedure: β-arrestin recruitment to the agonist-activated receptor (02V2R) was measured using the DiscoveRx PathHunter β-arrestin assay (Ahn, S. et al. Allosteric “beta-blocker” isolated from a DNA-encoded small molecule library. Proc Natl Acad Sci U SA 114, 1708-1713, doi:10.1073/pnas.1620645114 (2017)). […] Agonist-stimulated recruitment of βarr2 to the receptor results in the formation of functionally active β-gal enzyme. Addition of substrate generates a chemiluminescence signal directly correlated to the extent of recruitment. U2OS cells co-expressing β2V2R and βarr2 were plated in 96-well clear-bottomed plates at a density of 25,000 cells per well (80 μL per well), 24 hours prior to compound treatment. On the day of experiment, cells were first treated with compound or vehicle for 30 min, followed by agonist (Iso) stimulation for 60 min at 37° C. Cells were then treated with PathHunter™ detection reagents for 90 min at 37° C., and luminescence signals were measured using a CLARIOstar microplate reader (BMG Labtech Inc., Cary, N.C.).

[2] = biological target: βarr2 (Rattus norvegicus, UniProt P29067); assay: Negative-stain electron microscopy, 2D class averages of βarr2; set-up: final βarr2 (truncated βarr2 at 394) concentration of ˜1 mg/mL; made in house; details: control βarr 97% monomeric
Procedure: To prepare for EM visualization of the architecture and structural organization of βarr2-Cmpd30 complexes, purified βarr2 (394) was diluted to 0.5 μM and incubated with 5 μM Cmpd-30 or vehicle (DMSO) in HN buffer (20 mM HEPES pH 7.4 and 150 mM NaCl) for 7 min at room temperature followed by dilution 10× into HN buffer containing 1 μM Cmpd-30, before negative staining. The positive control, βarr2 bound to IP6 sample was prepared similarly (5 μM and 250 μM, respectively) and was diluted 100× into HN buffer containing 10 μM IP6. Grids were prepared using conventional negative-staining protocols as described previously (Peisley, A. & Skiniotis, G. 2D Projection Analysis of GPCR Complexes by Negative Stain Electron Microscopy. Methods Mol Biol 1335, 29-38, doi:10.1007/978-1-4939-2914-6_3 (2015). Briefly, 3 μL of samples were applied onto a glow-discharged EM carbon-coated copper grid, adsorbed on the grid surface, blotted, stained, and air dried before imaging. EM grids were examined with a FEI Tecnai G2 Twin electron microscope and operated at an acceleration voltage of 120 kV. Images were recorded with an Eagle 2K CCD camera at a magnification of ×65,200 and a defocus value of ˜1.5 μm. Two-dimensional EM reference-free alignment and classification of particle projections were performed with the iterative stable alignment and clustering procedure (ISAC)(Yang, Z., et al., Iterative stable alignment and clustering of 2D transmission electron microscope images. Structure 20, 237-247, doi:10.1016/j.str.2011.12.007 (2012)). EM single particles were both automatically and manually selected using Boxer (part of the EMAN 2.1 software suite)(Tang, G. et EMAN2: an extensible image processing suite for electron microscopy. J Struct Biol 157, 38-46, doi:10.1016/j.jsb.2006.05.009 (2007)). A total of ˜250,000 0° particles projections were picked representing all the three βarr2 samples (with vehicle, Cmpd-30 or IP6) and windowed into 96×96-pixel images (with the RELION 2.1-beta-1 software package) and subjected to ISAC. […]

T1 sequence (P32121 whole entry): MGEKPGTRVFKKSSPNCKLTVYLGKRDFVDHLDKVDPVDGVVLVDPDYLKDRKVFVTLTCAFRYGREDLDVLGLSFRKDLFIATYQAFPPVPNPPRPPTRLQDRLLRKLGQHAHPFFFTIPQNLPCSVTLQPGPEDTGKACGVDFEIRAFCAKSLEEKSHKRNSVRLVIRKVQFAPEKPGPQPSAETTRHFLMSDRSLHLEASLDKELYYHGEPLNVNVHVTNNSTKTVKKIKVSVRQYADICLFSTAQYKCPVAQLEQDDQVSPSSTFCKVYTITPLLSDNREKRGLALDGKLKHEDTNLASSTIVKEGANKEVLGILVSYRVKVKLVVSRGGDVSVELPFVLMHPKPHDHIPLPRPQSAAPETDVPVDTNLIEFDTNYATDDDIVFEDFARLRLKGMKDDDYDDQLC
Sequence of βarr2 (P29067 1-394): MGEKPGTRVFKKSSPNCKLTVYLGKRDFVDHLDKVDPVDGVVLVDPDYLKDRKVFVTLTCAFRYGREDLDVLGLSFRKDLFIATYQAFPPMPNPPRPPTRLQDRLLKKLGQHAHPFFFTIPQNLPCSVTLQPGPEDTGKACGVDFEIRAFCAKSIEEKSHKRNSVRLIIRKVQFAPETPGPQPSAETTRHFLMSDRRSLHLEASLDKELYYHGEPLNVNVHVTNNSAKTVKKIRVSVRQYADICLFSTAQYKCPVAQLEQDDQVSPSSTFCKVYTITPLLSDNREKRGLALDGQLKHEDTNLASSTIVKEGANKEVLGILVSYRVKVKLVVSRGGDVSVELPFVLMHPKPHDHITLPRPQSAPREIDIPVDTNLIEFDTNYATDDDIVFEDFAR

maximal agonist induced βarr recruitment response [1]	class averages represented as homo-oligomers (dimers/trimers) [2] [%]	SMILES
significantly diminished		COc1cc(Cc2nccc3cc(OC)c(OC)cc23)c(C(C)=O)cc1OC [C29, 1-[2-[(6,7-dimethoxyisoquinolin-1-yl)methyl]-4,5-dimethoxyphenyl]ethanone]
	100	O=P(O)(O)OC1C(OP(=O)(O)O)C(OP(=O)(O)O)C(OP(=O)(O)O)C(OP(=O)(O)O)C1OP(=O)(O)O (centres unmarked) [IP6, inositol hexakisphosphate, reference compound]
